Assays:
[1] = system: barnyardgrass; test: Test A pre-/postemergence greenhouse test; format: in vivo, Echinochloa crus-galli; conditions: for Barnyardgrass plant response rating: 0 to 100 scale; for Plant response rating, Barnyardgrass: 0 to 100 scale where 0 is no effect and 100 is complete control
How it was run: (§1)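 Sowing in loam/sand; same-day pre (directed soil spray) and post (foliar, 1–2 leaf, 2–10 cm) treatment with surfactant-containing non-phytotoxic solvent formulation; ~10 days in greenhouse; eye-scored injury against untreated plants.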

[2] = system: crabgrass; test: Test A pre-/postemergence greenhouse test; format: in vivo, Digitaria sanguinalis; conditions: for Crabgrass, Large plant response rating: 0 to 100 scale; for Plant response rating, Crabgrass, Large: 0 to 100 scale where 0 is no effect and 100 is complete control
How it was run: as §1

[3] = system: giant foxtail; test: Test A pre-/postemergence greenhouse test; format: in vivo, Setaria faberi; conditions: for Foxtail, Giant plant response rating: 0 to 100 scale; for Plant response rating, Foxtail, Giant: 0 to 100 scale where 0 is no effect and 100 is complete control
How it was run: as §1

[4] = system: velvetleaf; test: Test A pre-/postemergence greenhouse test; format: in vivo, Abutilon theophrasti; conditions: for Velvetleaf plant response rating: 0 to 100 scale; for Plant response rating, Velvetleaf: 0 to 100 scale where 0 is no effect and 100 is complete control
How it was run: as §1

[5] = system: blackgrass; test: Test C pre-/postemergence test; format: in vivo, Alopecurus myosuroides; conditions: for Plant response rating, Blackgrass: 31 g ai/ha, scale 0 to 100 (0 no effect, 100 complete control); for Plant response rating (0 to 100), Blackgrass: 250 g ai/ha
How it was run: (§2)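 Test chemicals were formulated with surfactant in a non-phytotoxic solvent and sprayed both on freshly planted seeds (preemergence) and on 1- to 4-leaf plants of 2–18 cm (postemergence). Flooded-paddy pots received compound directly into 3 cm of standing water, maintained for the test.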

[6] = system: downy brome; test: Test C pre-/postemergence test; format: in vivo, Bromus tectorum; conditions: for Plant response rating, Bromegrass, Downy: 31 g ai/ha, scale 0 to 100 (0 no effect, 100 complete control); for Plant response rating (0 to 100), Bromegrass, Downy: 250 g ai/ha
How it was run: as §2

[7] = system: green foxtail; test: Test C pre-/postemergence test; format: in vivo, Setaria viridis; conditions: Preemergence; for Foxtail, Green plant response rating: 62 g ai/ha, scale 0 to 100; for Plant response rating, Foxtail, Green: 31 g ai/ha, scale 0 to 100 (0 no effect, 100 complete control); for Plant response rating (0 to 100), Foxtail, Green: 250 g ai/ha
How it was run: as §2

[8] = system: catchweed bedstraw; test: Test C pre-/postemergence test; format: in vivo, Galium aparine; conditions: Preemergence; for Galium plant response rating: 62 g ai/ha, scale 0 to 100; for Plant response rating, Galium: 31 g ai/ha, scale 0 to 100 (0 no effect, 100 complete control); for Plant response rating (0 to 100), Galium: 250 g ai/ha
How it was run: as §2

[9] = system: Surinam grass; test: Test C pre-/postemergence test; format: in vivo, Brachiaria decumbens; conditions: Preemergence; for Surinam Grass plant response rating: 62 g ai/ha, scale 0 to 100; for Plant response rating, Surinam Grass: 31 g ai/ha, scale 0 to 100 (0 no effect, 100 complete control)
How it was run: as §2

[10] = system: woolly cupgrass; test: Test C pre-/postemergence test; format: in vivo, Eriochloa villosa; conditions: Preemergence; for Cupgrass, Woolly plant response rating: 62 g ai/ha, scale 0 to 100; for Plant response rating, Cupgrass, Woolly: 31 g ai/ha, scale 0 to 100 (0 no effect, 100 complete control); for Plant response rating (0 to 100), Cupgrass, Woolly: 250 g ai/ha
How it was run: as §2

[11] = system: lambsquarters; test: Test C pre-/postemergence test; format: in vivo, Chenopodium album; conditions: 62 g ai/ha, Preemergence; scale 0 to 100
How it was run: as §2

[12] = system: pigweed; test: Test C pre-/postemergence test; format: in vivo, Amaranthus retroflexus; conditions: Preemergence; for Pigweed plant response rating: 62 g ai/ha, scale 0 to 100; for Plant response rating, Pigweed: 31 g ai/ha, scale 0 to 100 (0 no effect, 100 complete control)
How it was run: as §2

[13] = system: common ragweed; test: Test C pre-/postemergence test; format: in vivo, Ambrosia elation; conditions: Preemergence; for Ragweed plant response rating: 62 g ai/ha, scale 0 to 100
How it was run: as §2

[14] = system: soybean; test: Test C pre-/postemergence test; format: in vivo, Glycine max; conditions: Preemergence; for Soybean plant response rating: 62 g ai/ha, scale 0 to 100
How it was run: as §2

[15] = system: velvetleaf; test: Test C pre-/postemergence test; format: in vivo, Abutilon theophrasti; conditions: Preemergence; for Velvetleaf plant response rating: 62 g ai/ha, scale 0 to 100; for Plant response rating, Velvetleaf: 31 g ai/ha, scale 0 to 100 (0 no effect, 100 complete control)
How it was run: as §2

[16] = system: duck salad; test: Test C flooded paddy test; format: in vivo, Heteranthera limosa; conditions: Flood
How it was run: (§3)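 Compound was added to standing water 3 cm above soil, flood maintained, and plants held in a greenhouse before visual scoring against controls at 13 to 15 days.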

[17] = system: barnyardgrass; test: Test C flooded paddy test; format: in vivo, Echinochloa crus-galli; conditions: Flood
How it was run: as §3

[18] = Postemergence, 125 g ai/ha, 0 is no effect, 100 is complete control
[19] = Postemergence, 500 g ai/ha, 0 is no effect, 100 is complete control
[20] = Preemergence, 125 g ai/ha, 0 no effect, 100 complete control
[21] = 62 g ai/ha, Preemergence, scale 0 to 100
[22] = preemergence, 125 g ai/ha, scale 0 (no effect) to 100 (complete control)
[23] = 31 g ai/ha, scale 0 to 100 (0 no effect, 100 complete control)
[24] = 62 g ai/ha, scale 0 to 100, 0 no effect, 100 complete control, 13 to 15 days
[25] = 125 g ai/ha, scale 0 to 100, 0 no effect, 100 complete control, 13 to 15 days
[26] = 250 g ai/ha, scale 0 to 100 (0 no effect, 100 complete control)

Cn1nc(C(F)(F)F)c(CS(=O)(=O)c2cc(C(C)(C)C)cc[n+]2[O-])c1OC(F)F [Compound 25]
Barnyardgrass plant response rating [1, 18]: 40 | Barnyardgrass plant response rating [1, 19]: 50 | Barnyardgrass plant response rating [1, 20]: 90 | Plant response rating, Barnyardgrass ([1]; Preemergence, 500 g ai/ha): 100 | Crabgrass, Large plant response rating [2, 18]: 10 | Crabgrass, Large plant response rating [2, 19]: 70 | Crabgrass, Large plant response rating [2, 20]: 90 | Plant response rating, Crabgrass, Large ([2]; Preemergence, 500 g ai/ha): 100 | Foxtail, Giant plant response rating [3, 18]: 30 | Foxtail, Giant plant response rating [3, 19]: 70 | Foxtail, Giant plant response rating [3, 20]: 100 | Plant response rating, Foxtail, Giant ([3]; Preemergence, 500 g ai/ha): 100 | Velvetleaf plant response rating [4, 18]: 30 | Velvetleaf plant response rating [4, 19]: 50 | Velvetleaf plant response rating [4, 20]: 60 | Plant response rating, Velvetleaf ([4]; Preemergence, 500 g ai/ha): 100 | Blackgrass plant response rating [5, 21]: 0 | Plant response rating, Blackgrass ([5]; Preemergence): 0 | Plant response rating (0 to 100), Blackgrass ([5]; Preemergence): 0 | Blackgrass plant response rating [5, 22]: 0 | Bromegrass, Downy plant response rating [6, 21]: 0 | Plant response rating, Bromegrass, Downy ([6]; Preemergence): 0 | Plant response rating (0 to 100), Bromegrass, Downy ([6]; Preemergence): 50 | Bromegrass, Downy plant response rating [6, 22]: 0 | Foxtail, Green plant response rating [7]: 98 | Plant response rating, Foxtail, Green [7]: 80 | Plant response rating (0 to 100), Foxtail, Green [7]: 100 | Galium plant response rating [8]: 98 | Plant response rating, Galium [8]: 70 | Plant response rating (0 to 100), Galium [8]: 100 | Surinam Grass plant response rating [9]: 50 | Plant response rating, Surinam Grass [9]: 0 | Cupgrass, Woolly plant response rating [10]: 60 | Plant response rating, Cupgrass, Woolly [10]: 40 | Plant response rating (0 to 100), Cupgrass, Woolly [10]: 100 | Lambsquarters plant response rating [11]: 60 | Pigweed plant response rating [12]: 100 | Plant response rating, Pigweed [12]: 100 | Ragweed plant response rating [13]: 10 | Plant response rating, Ragweed [13, 23]: 0 | Soybean plant response rating [14]: 20 | Plant response rating, Soybean [14, 23]: 0 | Velvetleaf plant response rating [15]: 80 | Plant response rating, Velvetleaf [15]: 20 | Plant response rating, Ducksalad [16, 23]: 0 | Plant response rating, Ducksalad [16, 24]: 40 | Plant response rating, Ducksalad [16, 25]: 60 | Plant response rating, Ducksalad [16, 26]: 80 | Plant response rating, Barnyardgrass [17, 23]: 0 | Plant response rating, Barnyardgrass [17, 24]: 0 | Plant response rating, Barnyardgrass [17, 25]: 30 | Plant response rating, Barnyardgrass [17, 26]: 80

Cn1nc(C(F)(F)F)c(CS(=O)(=O)c2cccc[n+]2[O-])c1OCC(F)(F)F [Compound 29]
Barnyardgrass plant response rating [1, 18]: 80 | Barnyardgrass plant response rating [1, 19]: 90 | Barnyardgrass plant response rating [1, 20]: 100 | Plant response rating, Barnyardgrass ([1]; Preemergence, 500 g ai/ha): 100 | Crabgrass, Large plant response rating [2, 18]: 80 | Crabgrass, Large plant response rating [2, 19]: 90 | Crabgrass, Large plant response rating [2, 20]: 90 | Plant response rating, Crabgrass, Large ([2]; Preemergence, 500 g ai/ha): 100 | Foxtail, Giant plant response rating [3, 18]: 80 | Foxtail, Giant plant response rating [3, 19]: 90 | Foxtail, Giant plant response rating [3, 20]: 100 | Plant response rating, Foxtail, Giant ([3]; Preemergence, 500 g ai/ha): 100 | Velvetleaf plant response rating [4, 18]: 40 | Velvetleaf plant response rating [4, 19]: 70 | Velvetleaf plant response rating [4, 20]: 40 | Plant response rating, Velvetleaf ([4]; Preemergence, 500 g ai/ha): 100 | Blackgrass plant response rating [5, 21]: 100 | Plant response rating, Blackgrass ([5]; Preemergence): 98 | Plant response rating (0 to 100), Blackgrass ([5]; Preemergence): 100 | Blackgrass plant response rating [5, 22]: 100 | Bromegrass, Downy plant response rating [6, 21]: 20 | Plant response rating, Bromegrass, Downy ([6]; Preemergence): 0 | Plant response rating (0 to 100), Bromegrass, Downy ([6]; Preemergence): 60 | Bromegrass, Downy plant response rating [6, 22]: 60 | Foxtail, Green plant response rating [7]: 100 | Plant response rating, Foxtail, Green [7]: 85 | Plant response rating (0 to 100), Foxtail, Green [7]: 100 | Galium plant response rating [8]: 100 | Plant response rating, Galium [8]: 100 | Plant response rating (0 to 100), Galium [8]: 100 | Surinam Grass plant response rating [9]: 75 | Plant response rating, Surinam Grass [9]: 75 | Cupgrass, Woolly plant response rating [10]: 100 | Plant response rating, Cupgrass, Woolly [10]: 80 | Plant response rating (0 to 100), Cupgrass, Woolly [10]: 100 | Lambsquarters plant response rating [11]: 0 | Pigweed plant response rating [12]: 100 | Plant response rating, Pigweed [12]: 100 | Ragweed plant response rating [13]: 30 | Soybean plant response rating [14]: 70 | Velvetleaf plant response rating [15]: 100 | Plant response rating, Velvetleaf [15]: 30 | Plant response rating, Ducksalad [16, 23]: 70 | Plant response rating, Ducksalad [16, 24]: 80 | Plant response rating, Ducksalad [16, 26]: 90 | Plant response rating, Barnyardgrass [17, 23]: 0 | Plant response rating, Barnyardgrass [17, 24]: 0 | Plant response rating, Barnyardgrass [17, 25]: 40 | Plant response rating, Barnyardgrass [17, 26]: 80

— patent US20100298141A1, “SUBSTITUTED PYRIDINE N-OXIDE HERBICIDES” (E. I. DU PONT DE NEMOURS AND COMPANY, priority 2007, published 2010)
